Results on 2 molecules are retold here after paper PMC6493465 (Oncotarget, 2019).

Where two headings read alike, the source gives them in different places.

For series [1], the system named is MCL-1, BCL2L10, survivin and cPARP in MOLM-13 cells. The experiment in a line: Western blot analysis of anti-apoptotic protein expression, MOLM-13. It counts as cell-based, human. Conditions: MOLM-13, 24-hour treatment; gilteritinib 30 nM, AraC 100 nM, IDR 3 nM, Aza 1000 nM. The protocol: Cell lysates were prepared in radioimmunoprecipitation assay buffer (Thermo Fisher Scientific Inc., Rockford, IL) supplemented with phosphatase (Thermo Fisher Scientific Inc.) and protease inhibitors (Merck, Billerica, MA), electrophoresed on 4%–15% gels, and subsequently transferred to polyvinylidene difluoride membranes. The membranes were blocked using Blocking One (Nacalai Tesque Inc., Kyoto, Japan) for 1 hour and then incubated overnight with primary antibodies to MCL-1, BCL210, cPARP (all from Cell Signaling Technology, Danvers, MA, USA), survivin (R&D Systems, Inc., Minneapolis, MN), and α-actin (MilliporeSigma, Burlington, MA). The membranes were washed with TBS Tween-20 (TBS-T) buffer and incubated with appropriate horseradish peroxidase-linked secondary antibodies (Cell Signaling Technology Japan K.K.) for 1 hour at room temperature. After washing the membranes in TBS-T buffer, enhanced chemiluminescence Western Blotting Detection Reagent ECL-prime (GE Healthcare, Fairfield, CT) was applied. Signals were detected with a charge-coupled device camera (ImageQuant LAS4000; GE Healthcare); signal intensity was quantified using ImageQuant™ TL software (GE Healthcare).

Series [2] can be described thus: Pharmacokinetic assays (plasma and tumor) in nude mice xenografted with MV4-11 cells. It counts as in vivo, mouse. Conditions: for AUC24 ratio: combination versus the other group; for Cmax / Tmax / AUC: nude, mouse; for AUC: read-out: AUC24. As to the method: Plasma samples were prepared by centrifugation (n=3 per group; one sample in the combination group was excluded due to improper handling). […] These assays were conducted by Astellas Research Technologies Co., Ltd. under the guidance of Analysis & Pharmacokinetics Research Laboratories, Astellas Pharma, Inc., or by Nemoto Science Co., Ltd. (Ibaraki, Japan). […] Body weight and tumor assessments obtained on with MV4-11 cells received one of the following Day −1 were designated as Day 0 (baseline) measurements. combination treatments: 1. […] The percent tumor regression was calculated using the formula: […]

Another series deals with MOLM-13 cells. Briefly: Annexin-V staining (apoptosis), MOLM-13. It counts as cell-based, human. The following applies: 48 hours; for percentage of annexin V-positive cells: control 4.1%. As to the method: MV4-11 cells were seeded in 12-well plates at a concentration of 2 × 10^5 cells/well and cultured overnight. […] MOLM-13 cells were seeded in 12-well plates at a concentration of 1 × 10^5 cells/well and cultured overnight.
Cells were harvested and incubated with Guava® Nexin Reagent (Merck Millipore Corporation, Billerica, MA). Annexin-V-positive cells were assessed using a Guava® PCA microcytometer (Merck Millipore Corporation); the percentage of annexin-V-positive cells (2000 cells per sample) was analyzed using CytoSoft™ software (Merck Millipore Corporation). Mean percentages of annexin-V-positive cells were derived from three independent experiments.

Setting [3] is: plasma, iv, 3 mg/kg, azacitidine in plasma, gilteritinib 3, azacitidine 3 mg/kg.
Where [4] appears, read: plasma, iv, azacitidine in plasma, doses gilteritinib 3, azacitidine 0 mg/kg.
[5] abbreviates: tumor, iv, 3 mg/kg, azacitidine in tumor, gilteritinib 3, azacitidine 3 mg/kg.
Setting [6] is: plasma, po, 3 mg/kg, gilteritinib in plasma, gilteritinib 3 mg/kg, AraC 0, IDR 0.
Where [7] appears, read: plasma, po, 3 mg/kg, gilteritinib in plasma, gilteritinib 3, AraC 50, IDR 0.5 mg/kg.
The mark [8] stands for this setting: plasma, po, 3 mg/kg, gilteritinib in plasma, gilteritinib 3, azacitidine 0 mg/kg.
Setting [9] is: plasma, po, 3 mg/kg, gilteritinib in plasma, gilteritinib 3, azacitidine 3 mg/kg.
Where [10] appears, read: tumor, po, 3 mg/kg, gilteritinib in tumor, gilteritinib 3 mg/kg, AraC 0, IDR 0.
The mark [11] stands for this setting: tumor, po, 3 mg/kg, gilteritinib in tumor, gilteritinib 3, AraC 50, IDR 0.5 mg/kg.
Setting [12] is: tumor, po, 3 mg/kg, gilteritinib in tumor, gilteritinib 3, azacitidine 0 mg/kg.
Setting [13] is: tumor, po, 3 mg/kg, gilteritinib in tumor, gilteritinib 3, azacitidine 3 mg/kg.

Regarding `Nc1ncn([C@@H]2O[C@H](CO)[C@@H](O)[C@H]2O)c(=O)n1` [Aza, Azacitidine], the “expression of MCL-1, BCL2L10, and survivin” value in series [1] was “little effect”. The AUC24 ratio in series [2] (azacitidine in plasma) stood at 0.87; in series [2] (azacitidine in tumor), 1.17. In addition, the AUC24 in series [2] (azacitidine in tumor, doses gilteritinib 3, azacitidine 0 mg/kg) is 323 ng·h/g; in series [2] (azacitidine in tumor, gilteritinib 3, azacitidine 3 mg/kg) it was 378 ng·h/g. In addition, the Cmax stood at 3440 ng/mL in series [2] (setting [3]); 3390 ng/mL in series [2] (setting [4]); 96.8 ng/g in series [2] (setting [5]); 61.3 ng/g in series [2] (tumor, iv, azacitidine in tumor). The Tmax came to 0.08 h in series [2] (setting [3]); 0.08 h in series [2] (setting [4]); 0.5 h in series [2] (setting [5]); 0.08 h in series [2] (tumor, iv, azacitidine in tumor, doses gilteritinib 3, azacitidine 0 mg/kg). Further, the AUC in series [2] (setting [3]) was 1610 ng·h/mL; in series [2] (setting [4]), 1850 ng·h/mL. Also, the “mean percentage of annexin V-positive cells” value in the series on MOLM-13 cells (single agent: IDR 3 nM, AraC 100 nM or Aza 1000 nM) was 21.9%.

For the molecule `CCc1nc(C(N)=O)c(Nc2ccc(N3CCC(N4CCN(C)CC4)CC3)c(OC)c2)nc1NC1CCOCC1` [Gilteritinib], the “expression of MCL-1, BCL2L10, and survivin” value in series [1] is recorded as “strongly inhibited”. Besides, the “difference in PK profile alone versus in combination” value in series [2] (alone or in combination with AraC/IDR or Aza) was “no discernable difference”. Also, the AUC24 in series [2] (gilteritinib in tumor, gilteritinib 3 mg/kg, AraC 0, IDR 0) came to 6430.2 ng·h/g; in series [2] (gilteritinib in tumor, gilteritinib 3, AraC 50, IDR 0.5 mg/kg), 6639.0 ng·h/g; in series [2] (gilteritinib in tumor, gilteritinib 3, azacitidine 0 mg/kg) it was 3821 ng·h/g; in series [2] (gilteritinib in tumor, gilteritinib 3, azacitidine 3 mg/kg), 3964 ng·h/g. For the same molecule, the maximum concentration (Cmax) in series [2] (setting [6]) is 21.3 ng/mL; in series [2] (setting [7]) it was 22.3 ng/mL; in series [2] (setting [8]), 11 ng/mL; in series [2] (setting [9]) it was 10.1 ng/mL; in series [2] (setting [10]), 677 ng/g; in series [2] (setting [11]) it was 437 ng/g. For the same molecule, the Cmax was 387 ng/g in series [2] (setting [12]) and 349 ng/g in series [2] (setting [13]). Besides, the time of peak concentration (Tmax) in series [2] (setting [6]) worked out at 2 h; in series [2] (setting [7]), 2 h; in series [2] (setting [8]), 2 h; in series [2] (setting [9]) it was 2 h; in series [2] (setting [10]), 2 h; in series [2] (setting [11]) it was 4 h. Further, the Tmax in series [2] (setting [12]) and in series [2] (setting [13]) was 4 h throughout. In addition, the AUC turned out to be 156 ng·h/mL in series [2] (setting [6]), 199 ng·h/mL in series [2] (setting [7]), 65.8 ng·h/mL in series [2] (setting [8]) and 69.1 ng·h/mL in series [2] (setting [9]). Also, the “time after administration at which plasma concentrations peaked” value in series [2] (plasma, alone or in combination with AraC/IDR or Aza) is 2 h. Besides, in series [2] (xenografted mice), the “concentration in tumor fraction versus plasma fraction” value is reported as “higher in the tumor fraction”. Besides, the results for the “percentage of annexin V-positive cells” value in the series on MOLM-13 cells (gilteritinib alone 30 nM) and in the series with MOLM-13 cells (gilteritinib alone 100 nM) were 32.0% and 52.4%, respectively.
